# From US10689378B2, “Triazolopyridine compounds and uses thereof” (Novartis AG, priority 2016, dated 2020)
# Read-outs that look alike come from different tables or passages of the source.
# Experiments:
# [1] = molecular target: T1, EED (1-441)-His protein (Homo sapiens, UniProt O75530); experiment: EED-H3K27Me3 peptide competition binding assay by AlphaScreen
# T1 construct: 30 nM EED (1-441)-His protein
# Outline: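 Serially diluted compound (12 points, 3-fold) incubated 20 min with 30 nM EED(1-441)-His and 15 nM biotin-H3K27Me3(19-33) peptide in 25 mM HEPES pH 8, 0.02% Tween-20, 0.5% BSA. Ni-chelate acceptor/streptavidin donor beads (10 μg/mL each) added, 1 h rt dark; 615 nm emission normalized to controls, dose-response fit for IC50.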
# [2] = molecular target: wild type PRC2 (wtPRC2) complex (Homo sapiens, UniProt O75530); experiment: EED LC-MS assay (SAH production by PRC2); assay type: biochemical
# Outline: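 Pentameric PRC2 (EZH2, SUZ12, EED, Rbap48, AEBP), 12 nM final, preincubated 20 min with compound and SAM, then 1.5 μM biotinylated H3K27me0 peptide, 1 μM SAM, pH 8.0, 120 min at rt. SAH quantified by LC-MS/MS with d4-SAH; control-normalized activity fitted for IC50.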
# [3] = system: H3K27 methylation in G401 cell; experiment: ELISA (H3K27 methylation) assay in G401 cells; assay type: cell-based, human; details: Homo sapiens
# Outline: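 G401 cells treated 48 h with 3-fold dilutions (8 or 12 points, top 20 μM). Acid-extracted histones probed by ELISA for H3K27me3 or H3K27me2 with ECL readout, normalized to total H3. Percent inhibition versus DMSO fitted to dose-response curve for IC50.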
# [4] = read-out: (a) IC50, EED Alphascreen binding Qualified
# [5] = read-out: (b) IC50, EED LC-MS Qualified
# [6] = G-401, read-out: (c) IC50, ELISA Qualified
# [7] = read-out: (a) IC50 EED Alphascreen binding Qualified
# [8] = read-out: (b) IC50 EED LC-MS Qualified
# [9] = G-401, read-out: (c) IC50 ELISA Qualified
# [10] = EED-H3K27Me3 peptide competition, AlphaScreen, read-out: (a) IC50 EED Alphascreen binding Qualified
# [11] = PRC2 LC-MS assay, read-out: (b) IC50 EED LC-MS Qualified
# [12] = G-401, H3K27 methylation ELISA, read-out: (c) IC50 ELISA Qualified
# wild type PRC2 (wtPRC2) complex, sequence (O75530 whole entry): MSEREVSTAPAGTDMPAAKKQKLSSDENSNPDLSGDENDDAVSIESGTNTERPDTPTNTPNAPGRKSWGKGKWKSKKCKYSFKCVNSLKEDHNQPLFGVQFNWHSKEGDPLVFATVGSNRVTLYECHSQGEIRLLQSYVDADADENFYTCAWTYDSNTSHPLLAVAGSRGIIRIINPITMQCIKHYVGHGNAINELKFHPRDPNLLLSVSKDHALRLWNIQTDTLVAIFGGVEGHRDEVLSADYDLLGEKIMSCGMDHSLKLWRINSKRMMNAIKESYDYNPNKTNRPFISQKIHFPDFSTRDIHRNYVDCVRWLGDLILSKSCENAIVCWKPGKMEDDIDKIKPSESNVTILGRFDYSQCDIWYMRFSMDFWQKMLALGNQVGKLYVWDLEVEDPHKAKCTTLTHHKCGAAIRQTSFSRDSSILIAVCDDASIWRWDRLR
# wild type PRC2 (wtPRC2) complex, sequence (Q15910 whole entry partner): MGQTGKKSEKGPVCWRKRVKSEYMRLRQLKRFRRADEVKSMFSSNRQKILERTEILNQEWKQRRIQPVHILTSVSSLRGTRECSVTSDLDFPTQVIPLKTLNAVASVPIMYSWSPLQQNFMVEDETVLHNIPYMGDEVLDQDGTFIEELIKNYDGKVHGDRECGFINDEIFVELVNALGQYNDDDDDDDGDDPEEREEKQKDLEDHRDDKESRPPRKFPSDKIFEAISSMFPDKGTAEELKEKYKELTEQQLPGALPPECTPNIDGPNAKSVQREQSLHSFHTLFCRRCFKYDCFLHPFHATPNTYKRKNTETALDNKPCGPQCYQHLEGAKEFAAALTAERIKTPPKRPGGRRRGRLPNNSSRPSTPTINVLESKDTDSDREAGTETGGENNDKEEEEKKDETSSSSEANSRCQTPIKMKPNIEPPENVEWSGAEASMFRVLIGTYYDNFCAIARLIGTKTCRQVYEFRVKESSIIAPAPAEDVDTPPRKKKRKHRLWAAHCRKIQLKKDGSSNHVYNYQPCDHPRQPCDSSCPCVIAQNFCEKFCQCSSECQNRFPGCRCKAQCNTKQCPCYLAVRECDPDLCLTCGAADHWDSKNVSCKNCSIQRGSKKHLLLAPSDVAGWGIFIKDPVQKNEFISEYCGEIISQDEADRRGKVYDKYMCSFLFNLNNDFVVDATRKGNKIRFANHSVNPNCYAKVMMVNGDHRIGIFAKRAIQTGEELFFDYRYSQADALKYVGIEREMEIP
# wild type PRC2 (wtPRC2) complex, sequence (Q15022 whole entry partner): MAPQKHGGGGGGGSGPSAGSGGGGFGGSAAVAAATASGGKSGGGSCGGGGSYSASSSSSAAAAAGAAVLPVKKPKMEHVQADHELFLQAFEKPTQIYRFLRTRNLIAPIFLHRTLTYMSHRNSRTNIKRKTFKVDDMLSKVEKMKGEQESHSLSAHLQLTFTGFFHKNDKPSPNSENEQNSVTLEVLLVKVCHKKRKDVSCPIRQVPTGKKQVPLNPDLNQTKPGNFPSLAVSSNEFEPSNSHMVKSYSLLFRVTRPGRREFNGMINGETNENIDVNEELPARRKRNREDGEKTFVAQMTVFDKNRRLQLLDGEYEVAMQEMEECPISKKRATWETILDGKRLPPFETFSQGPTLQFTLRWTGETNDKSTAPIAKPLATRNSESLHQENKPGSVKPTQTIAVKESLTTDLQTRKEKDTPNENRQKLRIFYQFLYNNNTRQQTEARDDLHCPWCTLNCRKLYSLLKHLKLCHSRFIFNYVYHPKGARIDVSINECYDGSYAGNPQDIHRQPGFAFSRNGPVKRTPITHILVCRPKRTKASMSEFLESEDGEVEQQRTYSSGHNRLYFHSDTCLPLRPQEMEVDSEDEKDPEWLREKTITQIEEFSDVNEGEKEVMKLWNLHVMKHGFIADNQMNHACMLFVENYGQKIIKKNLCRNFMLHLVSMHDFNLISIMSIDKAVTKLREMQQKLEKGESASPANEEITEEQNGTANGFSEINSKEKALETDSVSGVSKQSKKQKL
# wild type PRC2 (wtPRC2) complex, sequence (Q09028 whole entry partner): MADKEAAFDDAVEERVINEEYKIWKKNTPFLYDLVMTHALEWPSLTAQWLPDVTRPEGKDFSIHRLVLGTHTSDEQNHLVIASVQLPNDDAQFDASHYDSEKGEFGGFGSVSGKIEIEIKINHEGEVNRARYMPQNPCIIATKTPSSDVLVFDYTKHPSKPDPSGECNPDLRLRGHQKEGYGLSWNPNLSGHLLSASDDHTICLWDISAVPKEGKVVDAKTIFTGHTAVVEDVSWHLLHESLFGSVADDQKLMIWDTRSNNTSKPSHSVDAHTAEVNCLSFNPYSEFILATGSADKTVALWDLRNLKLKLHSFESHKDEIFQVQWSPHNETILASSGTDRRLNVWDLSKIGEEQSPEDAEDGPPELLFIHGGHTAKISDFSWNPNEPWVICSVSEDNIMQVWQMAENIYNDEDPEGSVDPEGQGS
# wild type PRC2 (wtPRC2) complex, sequence (Q6ZN18 whole entry partner): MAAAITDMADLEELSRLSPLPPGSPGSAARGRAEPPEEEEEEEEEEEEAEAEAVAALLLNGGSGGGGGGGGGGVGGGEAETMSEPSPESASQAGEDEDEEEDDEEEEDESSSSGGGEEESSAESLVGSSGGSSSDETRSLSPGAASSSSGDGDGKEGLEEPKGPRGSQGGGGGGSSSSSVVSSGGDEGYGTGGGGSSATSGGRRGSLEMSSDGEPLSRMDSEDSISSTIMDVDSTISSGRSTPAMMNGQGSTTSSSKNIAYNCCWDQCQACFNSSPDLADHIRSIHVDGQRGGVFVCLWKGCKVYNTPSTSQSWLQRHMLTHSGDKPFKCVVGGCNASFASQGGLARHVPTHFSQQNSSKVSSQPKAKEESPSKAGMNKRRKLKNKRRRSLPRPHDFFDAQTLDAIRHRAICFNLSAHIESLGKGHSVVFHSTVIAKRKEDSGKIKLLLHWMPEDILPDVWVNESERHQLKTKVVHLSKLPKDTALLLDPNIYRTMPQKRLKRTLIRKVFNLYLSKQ
# T1 sequence (O75530 whole entry): as the sequence (O75530 whole entry) above
"IC50 [1, 4] [nM]","IC50 [2, 5] [nM]","IC50 [3, 6] [nM]","IC50 [1, 10] [nM]","IC50 [2, 11] [nM]","IC50 [3, 12] [nM]",Structure (SMILES),further results
9.5,785,3.8,,,,"COc1ccccc1CNc1ccc(-c2cc(F)c(CN(C)C)c(F)c2)c2nncn12 [Example 43, 8-(4-((dimethylamino)methyl)-3,5-difluorophenyl)-N-(2-methoxybenzyl)-[1,2,4] triazolo[4,3-a]pyridin-5-amine]",
48.2,137,42.6,,,,"COc1cccc(F)c1CNc1ccc(-c2ccccn2)c2nncn12 [Example 5, N-(2-Fluoro-6-methoxybenzyl)-8-(pyridin-2-yl)-[1,2,4]triazolo[4,3-a]pyridin-5-amine]",
44.4,266,51.5,,,,"COc1ccccc1CNc1ccc(-c2cccnc2)c2nncn12 [Example 27, N-(2-methoxybenzyl)-8-(pyridin-3-yl)-[1,2,4] triazolo[4,3-a]pyridin-5-amine]",
90.9,149,57,,,,"COc1cccc(F)c1CNc1ccc(-c2ncccc2C)c2nncn12 [Example 6, N-(2-Fluoro-6-methoxybenzyl)-8-(3-methylpyridin-2-yl)-[1,2,4]triazolo[4,3-a]pyridin-5-amine]",
77.4,60.8,42.5,,,,"COc1cccc(F)c1CNc1ccc(-c2cncnc2)c2nncn12 [Example 147, N-(2-fluoro-6-methoxybenzyl)-8-(pyrimidin-5-yl)-[1,2,4]triazolo[4,3-a]pyridin-5-amine]",
,,,42.3,618,17.5,"COc1cc(F)cc(F)c1CNc1ccc(-c2ccncc2C)c2nncn12 [Example 297, N-(2,4-difluoro-6-methoxybenzyl)-8-(3-methylpyridin-4-yl)-[1,2,4]triazolo[4,3-a] pyridin-5-amine]",
,,,29.1,213,26.7,"COc1cccc(F)c1CNc1ccc(-c2cncc(F)c2C)c2nncn12 [Example 219, 8-(5-fluoro-4-methylpyridin-3-yl)-N-(2-fluoro-6-methoxybenzyl)-[1,2,4]triazolo[4,3-a] pyridin-5-amine]",
15.9,38,14,,,,"COc1cccc(F)c1CNc1ccc(-c2cncc(C)c2)c2nncn12 [Example 165, N-(2-fluoro-6-methoxybenzyl)-8-(5-methylpyridin-3-yl)-[1,2,4]triazolo[4,3-a]pyridin-5-amine]",
76.5,405,56.7,,,,"COc1ccccc1CNc1ccc(-c2ccc(C)nc2)c2nncn12 [Example 111, N-(2-methoxybenzyl)-8-(6-methylpyridin-3-yl)-[1,2,4] triazolo[4,3-a]pyridin-5-amine]",
16.6,50.5,10.7,,,,"COc1cccc(F)c1CNc1ccc(-c2ccc(N(C)S(C)(=O)=O)nc2)c2nncn12 [Example 163, N-(5-(5-((2-fluoro-6-methoxybenzyl)amino)-[1,2,4]triazolo[4,3-a]pyridin-8-yl)pyridin-2-yl)-N-methylmethanesulfonamide]",
15.7,351,14.8,,,,"COc1cccc(F)c1CNc1ccc(-c2cnc(S(C)(=O)=O)c(C)c2)c2nncn12 [Example 160, N-(2-fluoro-6-methoxybenzyl)-8-(5-methyl-6-(methylsulfonyl)pyridin-3-yl)-[1,2,4]triazolo[4,3-a] pyridin-5-amine]",

# The next lines start with the molecule.
Structure (SMILES),"IC50 [1, 4] [nM]","IC50 [2, 5] [nM]","IC50 [3, 6] [nM]","IC50 [1, 10] [nM]","IC50 [2, 11] [nM]","IC50 [3, 12] [nM]",further results
"COc1cccc(F)c1CNc1ccc(-c2c(C)nn(CCO)c2C)c2nncn12 [Example 170, 2-(4-(5-((2-fluoro-6-methoxybenzyl)amino)-[1,2,4]triazolo[4,3-a]pyridin-8-yl)-3,5-dimethyl-1H-pyrazol-1-yl)ethanol]",25.8,67.2,18.6,,,,
"COc1ccccc1CNc1ccc(-c2ccc(N3CCN(C)CC3)nc2)c2nncn12 [Example 21, N-(2-methoxybenzyl)-8-(6-(4-methylpiperazin-1-yl)pyridin-3-yl)-[1,2,4] triazolo[4,3-a]pyridin-5-amine]",124,1060,234,,,,
"COc1cccc(F)c1CNc1ccc(-c2ccc(C(C)(C)C#N)nc2C)c2nncn12 [Example 369, 2-(5-(5-((2-fluoro-6-methoxybenzyl)amino)-[1,2,4]triazolo[4,3-a]pyridin-8-yl)-6-methylpyridin-2-yl)-2-methylpropanenitrile]",,,,,,,"IC50 [1, 7]: 5.2 nM; IC50 [2, 8]: 205 nM; IC50 [3, 9]: 2.9 nM"
"COc1cc(F)cc(F)c1CNc1ccc(-c2cccnc2C(F)F)c2nncn12 [Example 302, N-(2,4-difluoro-6-methoxybenzyl)-8-(2-(difluoromethyl)pyridin-3-yl)-[1,2,4]triazolo[4,3-a]pyridin-5-amine]",,,,13.3,39.3,9.8,
"COc1cccc(F)c1CNc1ccc(-c2ncnn2C)c2nncn12 [Example 356, N-(2-fluoro-6-methoxybenzyl)-8-(1-methyl-1H-1,2,4-triazol-5-yl)-[1,2,4] triazolo[4,3-a]pyridin-5-amine]",,,,,,,"IC50 [1, 7]: 19 nM; IC50 [2, 8]: 117 nM; IC50 [3, 9]: 14 nM"
"COc1cccc(F)c1CNc1ccc(-c2cccnc2CO)c2nncn12 [Example 303, (3-(5-((2-fluoro-6-methoxy benzyl)amino)-[1,2,4]triazolo[4,3-a]pyridin-8-yl)pyridin-2-yl)methanol]",,,,27.6,20.4,15.5,
"COc1cccc(F)c1CNc1ccc(-c2cnc(Cl)cc2C)c2nncn12 [Example 267, 8-(6-chloro-4-methylpyridin-3-yl)-N-(2-fluoro-6-methoxybenzyl)-[1,2,4]triazolo[4,3-a] pyridin-5-amine]",,,,17,75.8,14.6,
"COc1cccc(F)c1CNc1ccc(-c2cnc(C3CC3)cc2C)c2nncn12 [Example 270, 8-(6-cyclopropyl-4-methylpyridin-3-yl)-N-(2-fluoro-6-methoxybenzyl)-[1,2,4]triazolo[4,3-a]pyridin-5-amine]",,,,27.3,106,42.3,
"COc1cccc(F)c1CNc1ccc(-c2cnc(OC(F)F)cc2C)c2nncn12 [Example 304, 8-(6-(difluoromethoxy)-4-methylpyridin-3-yl)-N-(2-fluoro-6-methoxybenzyl)-[1,2,4]triazolo[4,3-a]pyridin-5-amine]",,,,26.6,48.3,18,
"COc1cc(F)cc(F)c1CNc1ccc(-c2ccc(C)nc2C(F)F)c2nncn12 [Example 314, N-(2,4-difluoro-6-methoxybenzyl)-8-(2-(difluoromethyl)-6-methylpyridin-3-yl)-[1,2,4]triazolo [4,3-a]pyridin-5-amine]",,,,22.3,110,18.6,
"COc1ccccc1CNc1ccc(-c2ccc(S(=O)(=O)C3CCNCC3)cc2)c2nncn12 [Example 53, N-(2-methoxybenzyl)-8-(4-(piperidin-4-ylsulfonyl)phenyl)-[1,2,4]triazolo[4,3-a] pyridin-5-amine]",27.9,144,36.5,,,,
"COc1cccc(F)c1CNc1ccc(-c2cn(C(C)C)nc2C)c2nncn12 [Example 282, N-(2-fluoro-6-methoxybenzyl)-8-(1-isopropyl-3-methyl-1H-pyrazol-4-yl)-[1,2,4]triazolo[4,3-a]pyridin-5-amine]",,,,10.7,15.7,8.1,
"COc1cccc(F)c1CNc1ccc(-n2cc(C)cn2)c2nncn12 [Example 353, N-(2-fluoro-6-methoxybenzyl)-8-(4-methyl-1H-pyrazol-1-yl)-[1,2,4]triazolo [4,3-a]pyridin-5-amine]",,,,,,,"IC50 [1, 7]: 25.8 nM; IC50 [2, 8]: 156 nM; IC50 [3, 9]: 39.3 nM"
"COc1cccc(F)c1CNc1ccc(-c2ccc(OCCS(C)(=O)=O)cc2)c2nncn12 [Example 169, N-(2-fluoro-6-methoxybenzyl)-8-(4-(2-(methylsulfonyl)ethoxy)phenyl)-[1,2,4]triazolo[4,3-a] pyridin-5-amine]",84.5,305,105,,,,
"COc1cccc(F)c1CNc1ccc(-c2c(C)nn(C(C)C)c2C)c2nncn12 [Example 245, N-(2-fluoro-6-methoxybenzyl)-8-(1-isopropyl-3,5-dimethyl-1H-pyrazol-4-yl)-[1,2,4]triazolo[4,3-a]pyridin-5-amine]",,,,14.6,27.7,8.2,
"COC(=O)N1CCC(n2cc(-c3ccc(NCc4c(F)cccc4OC)n4cnnc34)cn2)CC1 [Example 246, methyl 4-(4-(5-((2-fluoro-6-methoxybenzyl)amino)-[1,2,4]triazolo[4,3-a]pyridin-8-yl)-1H-pyrazol-1-yl) piperidine-1-carboxylate]",,,,68.9,106,242,
